How the values were obtained:
Format in all cases: biochemical
[1] = biological target: TYK2 (Homo sapiens (Human), UniProt P29597); test: JAK Caliper Enzyme Assay at 1 mM ATP, TYK2
Method in brief: (§1)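 Inhibition is measured as reduced phosphorylation of a synthetic peptide by the recombinant human kinase domain at 1 mM ATP. Conditions give 20–30% conversion at room temperature before EDTA quench, and on-chip separation of labelled substrate and product yields percent conversion for dose–response plotting.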

[2] = biological target: JAK1 (Homo sapiens (Human), UniProt P23458); test: JAK Caliper Enzyme Assay at 1 mM ATP, JAK1
Method in brief: (§2)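 Recombinant human kinase domains phosphorylate a fluorescent synthetic peptide at 1 mM ATP, room temperature, with enzyme and time tuned for 20-30% conversion; EDTA-stopped. Product/substrate separated by microfluidic mobility shift; percent effect versus DMSO and positive controls fitted to IC50 (nM).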

[3] = biological target: JAK2 (Homo sapiens (Human), UniProt O60674); test: JAK Caliper Enzyme Assay at 1 mM ATP, JAK2
Method in brief: as §1

[4] = biological target: JAK3 (Homo sapiens (Human), UniProt P52333); test: JAK Caliper Enzyme Assay at 1 mM ATP, JAK3
Method in brief: as §2

JAK3, sequence (P52333 822-1111): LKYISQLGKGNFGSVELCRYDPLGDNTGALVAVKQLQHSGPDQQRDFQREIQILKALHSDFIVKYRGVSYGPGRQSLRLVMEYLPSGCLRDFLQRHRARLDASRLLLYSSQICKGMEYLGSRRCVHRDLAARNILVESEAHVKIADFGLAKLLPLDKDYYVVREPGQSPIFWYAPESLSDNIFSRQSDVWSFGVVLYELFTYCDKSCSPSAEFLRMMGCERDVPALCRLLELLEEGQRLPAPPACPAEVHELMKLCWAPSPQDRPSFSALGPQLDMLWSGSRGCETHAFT
TYK2, sequence (P29597 897-1176): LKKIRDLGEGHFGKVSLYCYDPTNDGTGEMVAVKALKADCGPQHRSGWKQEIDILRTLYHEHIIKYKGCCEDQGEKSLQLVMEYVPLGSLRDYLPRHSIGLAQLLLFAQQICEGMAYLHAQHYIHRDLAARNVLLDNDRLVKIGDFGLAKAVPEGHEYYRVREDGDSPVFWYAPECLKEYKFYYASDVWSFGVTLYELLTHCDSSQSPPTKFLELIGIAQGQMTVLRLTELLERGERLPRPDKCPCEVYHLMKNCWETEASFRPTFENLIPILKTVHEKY
JAK1, sequence (P23458 875-1153): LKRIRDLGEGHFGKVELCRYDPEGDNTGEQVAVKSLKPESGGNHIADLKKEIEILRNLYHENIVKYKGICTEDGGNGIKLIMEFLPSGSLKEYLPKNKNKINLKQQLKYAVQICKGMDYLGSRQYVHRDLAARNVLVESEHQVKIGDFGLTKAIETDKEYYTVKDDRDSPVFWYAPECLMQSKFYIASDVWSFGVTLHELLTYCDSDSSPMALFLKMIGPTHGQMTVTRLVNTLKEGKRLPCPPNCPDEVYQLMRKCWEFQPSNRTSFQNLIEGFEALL
JAK2, sequence (O60674 849-1124): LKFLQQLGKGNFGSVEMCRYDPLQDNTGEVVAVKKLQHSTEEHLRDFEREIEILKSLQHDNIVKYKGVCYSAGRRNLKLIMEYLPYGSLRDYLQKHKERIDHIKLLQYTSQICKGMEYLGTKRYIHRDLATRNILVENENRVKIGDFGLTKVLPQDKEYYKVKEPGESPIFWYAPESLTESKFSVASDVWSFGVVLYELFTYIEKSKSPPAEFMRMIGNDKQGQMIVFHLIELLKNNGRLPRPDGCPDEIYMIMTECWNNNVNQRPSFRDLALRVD

SMILES	IC50 [1]	IC50 [2]	IC50 [3]	IC50 [4]
Cc1ccn(-c2cc3ncccc3c(-c3ccn(C4(CC#N)CN(CC(F)(F)F)C4)n3)n2)n1 [Example 143, [3-{3-[7-(3-methyl-1H-pyrazol-1-yl)-1,6-naphthyridin-5-yl]-1H-pyrazol-1-yl}-1-(2,2,2-trifluoroethyl)azetidin-3-yl]acetonitrile]	0.767 µM	> 10 µM	6.67 µM	> 10 µM
N#CCC1(n2ccc(-c3nc(-c4cn(C5COC5)cn4)cc4ncccc34)n2)CN(CC(F)(F)F)C1 [Example 144, [3-(3-{7-[1-(oxetan-3-yl)-1H-imidazol-4-yl]-1,6-naphthyridin-5-yl}-1H-pyrazol-1-yl)-1-(2,2,2-trifluoroethyl)azetidin-3-yl]acetonitrile]	0.223 µM	> 10 µM	1.37 µM	> 10 µM
CS(=O)(=O)N1CC(CC#N)(n2ccc(-c3nc(-c4cnco4)cc4ncccc34)n2)C1 [Example 145, [1-(methylsulfonyl)-3-{3-[7-(1,3-oxazol-5-yl)-1,6-naphthyridin-5-yl]-1H-pyrazol-1-yl}azetidin-3-yl]acetonitrile]	0.172 µM	3.29 µM	1.79 µM	> 10 µM
Cc1nc(-c2cc3ncccc3c(-c3ccn(C4(CC#N)CN(CC(F)(F)F)C4)n3)n2)c[nH]1 [Example 150, [3-{3-[7-(2-methyl-1H-imidazol-4-yl)-1,6-naphthyridin-5-yl]-1H-pyrazol-1-yl}-1-(2,2,2-trifluoroethyl)azetidin-3-yl]acetonitrile]	0.29 µM	9.83 µM	3.42 µM	> 10 µM
Cc1nc(-c2cc3ncccc3c(-c3ccn(C4(CC#N)CN(CC(F)(F)F)C4)n3)n2)cn1C [Example 151, [3-{3-[7-(1,2-dimethyl-1H-imidazol-4-yl)-1,6-naphthyridin-5-yl]-1H-pyrazol-1-yl}-1-(2,2,2-trifluoroethyl)azetidin-3-yl]acetonitrile]	0.309 µM	> 10 µM	1.66 µM	> 10 µM
Cc1ncc(-c2cc3ncccc3c(-c3ccn(C4(CC#N)CN(CC(F)(F)F)C4)n3)n2)n1C [Example 152, [3-{3-[7-(1,2-dimethyl-1H-imidazol-5-yl)-1,6-naphthyridin-5-yl]-1H-pyrazol-1-yl}-1-(2,2,2-trifluoroethyl)azetidin-3-yl]acetonitrile]	4.14 µM	> 10 µM	> 10 µM	> 10 µM
N#CCC1(n2ccc(-c3nc(-c4cn[nH]n4)cc4ncccc34)n2)CN(CC(F)(F)F)C1 [Example 153, [3-{3-[7-(2H-1,2,3-triazol-4-yl)-1,6-naphthyridin-5-yl]-1H-pyrazol-1-yl}-1-(2,2,2-trifluoroethyl)azetidin-3-yl]acetonitrile]	0.239 µM	5.84 µM	3.35 µM	> 10 µM
Cn1ncc(-c2cc3ncccc3c(-c3ccn(C4(CC#N)CN(CC(F)(F)F)C4)n3)n2)n1 [Example 154, [3-{3-[7-(2-methyl-2H-1,2,3-triazol-4-yl)-1,6-naphthyridin-5-yl]-1H-pyrazol-1-yl}-1-(2,2,2-trifluoroethyl)azetidin-3-yl]acetonitrile]	0.287 µM	> 10 µM	3.18 µM	> 10 µM
CS(=O)(=O)N1CC(CC#N)(n2ccc(-c3nc(-c4c[nH]c5nccc-5c4)cc4ncccc34)n2)C1 [Example 157, [1-(methylsulfonyl)-3-{3-[7-(7H-pyrrolo[2,3-b]pyridin-5-yl)-1,6-naphthyridin-5-yl]-1H-pyrazol-1-yl}azetidin-3-yl]acetonitrile]	0.148 µM	1.68 µM	0.856 µM	> 10 µM
N#CCC1(n2ccc(-c3nc(-c4cnc5cc[nH]c5c4)cc4ncccc34)n2)CN(CC(F)(F)F)C1 [Example 158, [3-{3-[7-(1H-pyrrolo[3,2-b]pyridin-6-yl)-1,6-naphthyridin-5-yl]-1H-pyrazol-1-yl}-1-(2,2,2-trifluoroethyl)azetidin-3-yl]acetonitrile]	0.033 µM	1.97 µM	0.666 µM	> 10 µM
CS(=O)(=O)N1CC(CC#N)(n2ccc(-c3nc(-c4c[nH]c5ncccc45)cc4ncccc34)n2)C1 [Example 159, [1-(methylsulfonyl)-3-{3-[7-(1H-pyrrolo[2,3-b]pyridin-3-yl)-1,6-naphthyridin-5-yl]-1H-pyrazol-1-yl}azetidin-3-yl]acetonitrile]	0.007 µM	0.12 µM	0.116 µM	> 10 µM
CS(=O)(=O)N1CC(CC#N)(n2ccc(-c3nc(-c4c[nH]c5cccnc45)cc4ncccc34)n2)C1 [Example 160, [1-(methylsulfonyl)-3-{3-[7-(1H-pyrrolo[3,2-b]pyridin-3-yl)-1,6-naphthyridin-5-yl]-1H-pyrazol-1-yl}azetidin-3-yl]acetonitrile]	0.795 µM	> 10 µM	5.57 µM	> 10 µM

Now from value to molecule:

IC50 [1]	IC50 [2]	IC50 [3]	IC50 [4]	SMILES
0.02 µM	0.489 µM	0.034 µM	2.02 µM	Cn1cc(-c2cc3ncccc3c(-c3ccn([C@]4(CC#N)C[C@@H](C#N)C4)n3)n2)c(CO)n1 [Example 135, trans-3-(cyanomethyl)-3-(3-{7-[3-(hydroxymethyl)-1-methyl-1H-pyrazol-4-yl]-1,6-naphthyridin-5-yl}-1H-pyrazol-1-yl)cyclobutanecarbonitrile]
0.044 µM	0.618 µM	0.26 µM	> 10 µM	Cn1ncc(-c2cc3ncccc3c(-c3ccn([C@]4(CC#N)C[C@@H](C#N)C4)n3)n2)c1CO [Example 136, trans-3-(cyanomethyl)-3-(3-{7-[5-(hydroxymethyl)-1-methyl-1H-pyrazol-4-yl]-1,6-naphthyridin-5-yl}-1H-pyrazol-1-yl)cyclobutanecarbonitrile]
0.052 µM	0.586 µM	0.207 µM	> 10 µM	Cn1ncc(-c2cc3ncccc3c(-c3ccn(C4(CC#N)CN(S(C)(=O)=O)C4)n3)n2)c1N [Example 137, [3-{3-[7-(5-amino-1-methyl-1H-pyrazol-4-yl)-1,6-naphthyridin-5-yl]-1H-pyrazol-1-yl}-1-(methylsulfonyl)azetidin-3-yl]acetonitrile]
0.008 µM	0.382 µM	0.021 µM	3.19 µM	Cn1cc(-c2cc3ncccc3c(-c3ccn(C4(CC#N)CN(S(C)(=O)=O)C4)n3)n2)c(N)n1 [Example 138, [3-{3-[7-(3-amino-1-methyl-1H-pyrazol-4-yl)-1,6-naphthyridin-5-yl]-1H-pyrazol-1-yl}-1-(methylsulfonyl)azetidin-3-yl]acetonitrile]
0.01 µM	0.243 µM	0.02 µM	3.72 µM	Cn1cc(-c2cc3ncccc3c(-c3ccn([C@]4(CC#N)C[C@@H](C#N)C4)n3)n2)c(N)n1 [Example 139, trans-3-{3-[7-(3-amino-1-methyl-1H-pyrazol-4-yl)-1,6-naphthyridin-5-yl]-1H-pyrazol-1-yl}-3-(cyanomethyl)cyclobutanecarbonitrile]
0.008 µM	0.048 µM	0.01 µM	0.474 µM	Cn1cc(-c2cc3ncccc3c(-c3ccn([C@]4(CC#N)C[C@H](C#N)C4)n3)n2)c(N)n1 [Example 140, cis-3-{3-[7-(3-amino-1-methyl-1H-pyrazol-4-yl)-1,6-naphthyridin-5-yl]-1H-pyrazol-1-yl}-3-(cyanomethyl)cyclobutanecarbonitrile]
0.049 µM	0.355 µM	0.127 µM	> 10 µM	Cn1ncc(-c2cc3ncccc3c(-c3ccn(C4(CC#N)CC(C#N)C4)n3)n2)c1N (stereo not drawn) [Example 141, trans-3-{3-[7-(5-amino-1-methyl-1H-pyrazol-4-yl)-1,6-naphthyridin-5-yl]-1H-pyrazol-1-yl}-3-(cyanomethyl)cyclobutanecarbonitrile]
0.019 µM	0.053 µM	0.03 µM	2.16 µM	Cn1ncc(-c2cc3ncccc3c(-c3ccn([C@]4(CC#N)C[C@H](C#N)C4)n3)n2)c1N [Example 142, cis-3-{3-[7-(5-amino-1-methyl-1H-pyrazol-4-yl)-1,6-naphthyridin-5-yl]-1H-pyrazol-1-yl}-3-(cyanomethyl)cyclobutanecarbonitrile]
0.026 µM	0.4 µM	0.099 µM	> 10 µM	N#CC[C@]1(n2ccc(-c3nc(-c4cc(CO)no4)cc4ncccc34)n2)C[C@@H](C#N)C1 [Example 146, cis-3-(cyanomethyl)-3-(3-{7-[3-(hydroxymethyl)-1,2-oxazol-5-yl]-1,6-naphthyridin-5-yl}-1H-pyrazol-1-yl)cyclobutanecarbonitrile]
7.55 µM	> 10 µM	> 10 µM	> 10 µM	Cc1onc(N)c1-c1cc2ncccc2c(-c2ccn(C3(CC#N)CN(S(C)(=O)=O)C3)n2)n1 [Example 147, [3-{3-[7-(3-amino-5-methyl-1,2-oxazol-4-yl)-1,6-naphthyridin-5-yl]-1H-pyrazol-1-yl}-1-(methylsulfonyl)azetidin-3-yl]acetonitrile]
0.119 µM	2.05 µM	0.815 µM	> 10 µM	N#CCC1(n2ccc(-c3nc(-c4nc(CO)cs4)cc4ncccc34)n2)CC(C#N)C1 (stereo not drawn) [Example 156, cis-3-(cyanomethyl)-3-(3-{7-[4-(hydroxymethyl)-1,3-thiazol-2-yl]-1,6-naphthyridin-5-yl}-1H-pyrazol-1-yl)cyclobutanecarbonitrile]
